According to the NIST ThermoML archive (doi:10.1016/j.jct.2006.09.015):

Experiments:
[1] = relative permittivity at various frequencies (dimensionless); settings: 101.3 kPa, Liquid, Frequency=3 MHz, Bridge type OH-301 made in Radelcis, Hungary
[2] = relative permittivity at various frequencies (dimensionless); xn = mol fraction of the nth substance listed; settings: 101.3 kPa, Liquid, Frequency=3 MHz, Bridge type OH-301 made in Radelcis, Hungary

COCCO [2-methoxyethan-1-ol]
[1]
Settings | relative permittivity
293.15 K | 17.38
298.15 K | 16.95
303.15 K | 16.56

OCCOCCOCCO [triethylene glycol] + COCCO
relative permittivity, [2]
Settings | 293.15 K | 298.15 K | 303.15 K
x2 = 0 | 23.69 | 23.07 | 22.43
x2 = 0.05 | 23.69 | 23.05 | 22.42
x2 = 0.1 | 23.7 | 23.03 | 22.41
x2 = 0.2003 | 23.72 | 23.06 | 22.48
x2 = 0.2999 | 23.76 | 23.07 | 22.48
x2 = 0.4009 | 23.79 | 23.06 | 22.44
x2 = 0.5 | 23.82 | 22.95 | 22.35
x2 = 0.5999 | 23.77 | 22.76 | 21.91
x2 = 0.7 | 23.62 | 22.3 | 21.39
x2 = 0.8 | 22.92 | 21.54 | 20.43
x2 = 0.9 | 21.26 | 19.93 | 19.1
x2 = 0.9499 | 19.75 | 18.81 | 18.14

COCCO [2-methoxyethan-1-ol] + OCCOCCOCCO
[2], x1 = 1
Settings | relative permittivity
293.15 K | 17.38
298.15 K | 16.95
303.15 K | 16.56

OCCOCCO [diethylene glycol] + COCCO
relative permittivity, [2]
Settings | 293.15 K | 298.15 K | 303.15 K
x2 = 0 | 31.81 | 30.95 | 30.03
x2 = 0.0414 | 31.69 | 30.71 | 29.85
x2 = 0.0999 | 31.49 | 30.39 | 29.49
x2 = 0.2077 | 31.23 | 29.85 | 29.01
x2 = 0.3001 | 31.03 | 29.41 | 28.45
x2 = 0.4094 | 30.32 | 28.67 | 27.49
x2 = 0.4998 | 29.56 | 27.81 | 26.61
x2 = 0.5994 | 28.32 | 26.68 | 25.36
x2 = 0.6996 | 26.65 | 24.99 | 23.55
x2 = 0.7996 | 24.25 | 22.78 | 21.64
x2 = 0.9018 | 21.43 | 20.27 | 19.39
x2 = 0.9463 | 19.98 | 18.88 | 18.25

OCCOCCO [diethylene glycol]
[1]
Settings | relative permittivity
293.15 K | 31.81
298.15 K | 30.95
303.15 K | 30.03

COCCO [2-methoxyethan-1-ol] + OCCOCCO
[2], x1 = 1
Settings | relative permittivity
293.15 K | 17.38
298.15 K | 16.95
303.15 K | 16.56

OCCOCCOCCO [triethylene glycol]
[1]
Settings | relative permittivity
293.15 K | 23.69
298.15 K | 23.07
303.15 K | 22.43

COCCO [2-methoxyethan-1-ol] + OCCOCCOCCOCCO
[2], x1 = 1
Settings | relative permittivity
293.15 K | 17.38
298.15 K | 16.95
303.15 K | 16.56
